“Also recorded” adds a separate entry of the source. Like-named read-outs stand apart in the source and are kept apart here.
How the values were obtained:
[1] = mouse, in vivo, 25 mg/kg; for Half Life: po
[2] = mice, 25 mg/kg PO, feces collected 24 h
[3] = test system: Nluc-expressing C. parvum; conditions: for Efficacy (reduction in oocyst shedding / infection), in words: oral, 5 days, doses of Table 3
[4] = test system: human ether-á-go-go related gene (hERG); conditions: cited from earlier work
[5] = mouse, in vivo
[6] = rat
[7] = mouse, in vivo; remark: listed apart in the source
[8] = IFN-γ KO mice, 60 mg/kg QD for 5 days

5-amino-3-(2-cyclopropoxyquinolin-6-yl)-1-(4-hydroxybutan-2-yl)-1H-pyrazole-4-carboxamide [Compound 10]
Oral Clearance [1]: 0.1 mL/min | Half Life [1]: 2.047 h | Fecal concentration from 25 mg/kg dose [2]: 4.5 µM

5-amino-3-(7-cyclopropoxyquinolin-3-yl)-1-(4-hydroxybutan-2-yl)-1H-pyrazole-4-carboxamide [Compound 11]
Oral Clearance [1]: 0.7 mL/min | Half Life [1]: 1.42 h | Efficacy (reduction in oocyst shedding / infection), in words ([3]; IFN-γ KO mice): significant reduction in oocyst shedding

CCOc1ccc2cc(-c3nn(CC4CCN(C)CC4)c4ncnc(N)c34)ccc2c1 [BKI 1294]
hERG activity in vitro [4]: has shown activity against the human ether-á-go-go related gene (hERG) in vitro

CCOc1ccc2cc(-c3nn(C(C)(C)C)c(N)c3C(N)=O)cnc2c1 [BKI 1517]
hERG inhibition signal in vitro [4]: did not have significant in vitro hERG inhibition signal

CCOc1ccc2cc(-c3nn(CC(C)(C)CO)c(N)c3C(N)=O)ccc2c1 [Compound 3, 5-amino-3-(6-ethoxynaphthalen-2-yl)-1-(3-hydroxy-2,2-dimethylpropyl)-1H-pyraz-+ole-4-carboxamide]
Efficacy (reduction in oocyst shedding / infection), in words ([3]; IFN-γ KO mice): failed to reduce infection; also recorded: Failed efficacy, low c-Src IC50 | Fecal concentration from 25 mg/kg dose [2]: 7.6 µM

CCOc1ccc2cc(-c3nn(C(C)CCO)c(N)c3C(N)=O)cnc2c1 (centres unmarked) [Compound 7, 5-amino-3-(7-ethoxyquinolin-3-yl)-1-(4-hydroxybutan-2-yl)-1H-pyrazole-4-carboxamide]
Efficacy (reduction in oocyst shedding / infection), in words ([3]; IFN-γ KO mice): significant reduction in oocyst shedding | Fecal concentration from 25 mg/kg dose [2]: 1.1 µM

CCOc1ccc2cc(-c3nn(C(C)CCO)c(N)c3C(N)=O)ccc2c1 (centres unmarked) [Compound 9, 5-amino-3-(6-ethoxynaphthalen-2-yl)-1-(4-hydroxybutan-2-yl)-1H-pyrazole-4-carboxamide]
Efficacy in words ([3]; IFN-γ KO mice, 30 mg/kg BID for 5 days): remain a full log above the LLOD | Efficacy in words [3, 8]: efficacious | Efficacy (reduction in oocyst shedding / infection), in words ([3]; IFN-γ KO mice): significant reduction in oocyst shedding

CC(CCO)n1nc(-c2ccc3cc(OC4CC4)ccc3c2)c(C(N)=O)c1N (centres unmarked) [Compound 12, 5-amino-3-(6-cyclopropoxynaphthalen-2-yl)-1-(4-hydroxybutan-2-yl)-1H-pyrazole-4-carboxamide]
Liabilities: toxicity during efficacy study ([3]; IFN-γ KO mice efficacy study): Signs of toxicity during efficacy | Fecal concentration from 25 mg/kg dose [2]: 10.3 µM

CCOc1ccc2cc(-c3nn(C(C)(C)CCO)c(N)c3C(N)=O)ccc2c1 [Compound 15, 5-amino-3-(6-ethoxynaphthalen-2-yl)-1-(4-hydroxy-2-methylbutan-2-yl)-1H-pyrazole-4-carboxamide]
Efficacy in words ([3]; IFN-γ KO mice, 5 mg/kg BID for 5 days): failed to provide an efficacious result | Efficacy in words ([3]; IFN-γ KO mice, 15 mg/kg BID for 5 days): failed to provide an efficacious result | Efficacy in words ([3]; IFN-γ KO mice, 30 mg/kg BID for 5 days, 30 mg/kg): efficacious; also recorded: reductions to below the LLOD | Log reduction (to below the LLOD) ([3]; IFN-γ KO mice, 60 mg/kg BID for 5 days): 4 log | Efficacy in words [3, 8]: failed to provide an efficacious result | Efficacy in words ([3]; IFN-γ KO mice, 120 mg/kg QD for 5 days): reductions to below the LLOD | Efficacy (reduction in oocyst shedding / infection), in words ([3]; IFN-γ KO mice): significant reduction in oocyst shedding | Toxicity to human cell lines (human cell lines): not toxic to a variety of human cell lines | CBC and serum chemistry results [5]: within the normal range | Histological analysis of all major organs [5]: no abnormalities | Observable signs of toxicity ([5]; 150 mg/kg): Neither dose concentration showed any observable signs of toxicity

CCOc1ccc2cc(-c3nn(C(C)(C)CO)c(N)c3C(N)=O)cnc2c1 [Compound 19, 5-amino-3-(7-ethoxyquinolin-3-yl)-1-(1-hydroxy-2-methylpropan-2-yl)-1H-pyrazole-4-carboxamide]
Fecal concentration from 25 mg/kg dose [2]: 2.9 µM

CCOc1ccc2cc(-c3nn(C(C)(C)CO)c(N)c3C(N)=O)ccc2n1 [Compound 20, 5-amino-3-(2-ethoxyquinolin-6-yl)-1-(1-hydroxy-2-methylpropan-2-yl)-1H-pyrazole-4-carboxamide]
Efficacy in words ([3]; IFN-γ KO mice, 10 mg/kg BID): failed to provide a significant reduction from initial infection levels | Efficacy in words ([3]; IFN-γ KO mice, 20 mg/kg BID): failed to provide a significant reduction from initial infection levels | Efficacy in words [3, 8]: efficacious to the LLOD | Efficacy (reduction in oocyst shedding / infection), in words ([3]; IFN-γ KO mice): significant reduction in oocyst shedding | Fecal concentration from 25 mg/kg dose [2]: 0.41 µM

CCOc1ccc2cc(-c3nn(C(C)(C)CO)c(N)c3C(N)=O)ccc2c1 [Compound 21, 5-amino-3-(6-ethoxynaphthalen-2-yl)-1-(1-hydroxy-2-methylpropan-2-yl)-1H-pyrazole-4-carboxamide]
Efficacy (reduction in oocyst shedding / infection), in words ([3]; IFN-γ KO mice): failed to reduce infection; also recorded: Failed efficacy | Fecal concentration from 25 mg/kg dose [2]: 7.1 µM

CC(C)(CO)n1nc(-c2ccc3cc(OC4CC4)ccc3c2)c(C(N)=O)c1N [Compound 24, 5-amino-3-(6-cyclopropoxynaphthalen-2-yl)-1-(1-hydroxy-2-methylpropan-2-yl)-1H-pyrazole-4-carboxamide]
Efficacy (reduction in oocyst shedding / infection), in words ([3]; IFN-γ KO mice): significant reduction in oocyst shedding | Liabilities: in vivo cardiovascular [6]: In vivo cardiovascular liabilities (data not shown) | Fecal concentration from 25 mg/kg dose [2]: 3.5 µM

CC(C)(C)n1nc(-c2ccc3cc(OC4CC4)ccc3c2)c(C(N)=O)c1N [Compound 25, 5-amino-1-(tert-butyl)-3-(6-cyclopropoxynaphthalen-2-yl)-1H-pyrazole-4-carboxamide]
Efficacy in words ([3]; IFN-γ KO mice, 15 mg/kg QD for 5 days): failed to reduce infections from their initial levels | Efficacy in words ([3]; IFN-γ KO mice, 30 mg/kg QD for 5 days): reduced infection to below the LLOD | Efficacy in words [3, 8]: efficacious | Efficacy (reduction in oocyst shedding / infection), in words ([3]; IFN-γ KO mice): efficacious | CBC and serum chemistry results [5]: within the normal range | Histological analysis of all major organs [5]: no abnormalities | Observable signs of toxicity ([5]; 100 mg/kg): No signs of toxicity were observed | Observable signs of toxicity ([5]; 250 mg/kg): Minor signs of toxicity | Plasma Concentration ([7]; 100 mg/kg): 19.9 ± 5.4 µM | Plasma Concentration ([7]; 100 mg/kg, 2 h): 49.2 ± 4.7 µM | Plasma Concentration ([7]; 250 mg/kg): 36.1 ± 16.7 µM | Fecal concentration from 25 mg/kg dose [2]: 0.42 µM

CCOc1ccc2cc(-c3nn(CC4CC4)c(N)c3C(N)=O)ccc2c1 [Compound 27, 5-amino-1-(cyclopropylmethyl)-3-(6-ethoxynaphthalen-2-yl)-1H-pyrazole-4-carboxamide]
Efficacy (reduction in oocyst shedding / infection), in words ([3]; IFN-γ KO mice): Failed efficacy | Fecal concentration from 25 mg/kg dose [2]: 54 µM

Source: article PMC6559944 (Journal of medicinal chemistry, 2019)
